# Source: patent publication US10160763B2, “WDR5 inhibitors and modulators” (Vanderbilt University, priority 2016, dated 2018)
# Biological target: WDR5 (Δ23, residues 24-334) (Homo sapiens, UniProt P61964)
# Experiment: biochemical
# Conditions: Kd (M), FPA-based binding affinity at the WDR5 WIN site; IC50 converted to Kd by modified Cheng-Prusoff equation; average of two experiments
row,Kd [M],SMILES
1,5.38e-07,COc1cccc(CN(Cc2cccc(-c3cn4c(n3)CCC4)c2)C(=O)c2ccc(OC)c(OC)c2)c1 [B64]
2,6.26e-07,Cc1ccc(C(=O)NCc2cccc(-c3cn4c(n3)CCC4)c2)cc1Br [B171]
3,3.05e-07,COC(=O)c1cc(CN(CC2CC2)C(=O)c2ccc(OC)c(OC)c2)cc(-c2cn3c(n2)CCC3)c1 [B69]
4,1.23e-06,O=C(Cc1cccnc1)NCc1cccc(-c2cn3c(n2)CCC3)c1 [B152]
5,5.61e-07,O=C(NCc1cccc(-c2cn3c(n2)CCC3)c1)C1CC1c1ccccc1 (centres unmarked) [B39]
6,7.9e-07,CC(=O)N1CCCC(C(=O)N(Cc2cccc(-c3cn4c(n3)CCC4)c2)CC2CC2)C1 (centres unmarked) [B58]
7,1.84e-07,COc1cccc(C(=O)NCc2cc(-c3cn4c(n3)CCC4)ccc2N2CCOCC2)c1 [B139]
8,3.52e-06,O=C(NCc1cccc(-c2cn3c(n2)CCC3)c1)Nc1cc(Cl)cc(Cl)c1 [B33]
9,1.73e-06,COc1cccc(C(=O)NCc2cc(-c3cn4c(n3)CCC4)ccc2N2CCC(OC)C2)c1 (centres unmarked) [B178]
10,2.81e-06,O=C(C1CCc2ccccc2C1)N(Cc1cccc(-c2cn3c(n2)CCC3)c1)CC1CC1 (centres unmarked) [B62]
11,2.22e-06,"COc1cccc(C(=O)NCc2cc(-c3cn4c(n3)CCC4)ccc2N2CCN(C)CC2)c1 [B147, N-(5-(6,7-dihydro-5H-pyrrolo[1,2-a]imidazol-2-yl)-2-(4-methylpiperazin-1-yl)benzyl)-3-methoxybenzamide]"
12,1.12e-07,COc1cc(C(=O)NCc2cc(-c3cn4c(n3)CCC4)ccc2N2CC(C)OC(C)C2)ccc1C (centres unmarked) [B174]
13,5.8e-08,O=C(NCc1cccc(-c2cn3c(n2)CCC3)c1)C1CCCN(C(=O)CC(F)(F)F)C1 (centres unmarked) [B184]
14,1.4e-08,CC(C)N(Cc1cc(-c2cn3c(n2)CCC3)ccc1OC1CCC1)C(=O)Cc1ccc(Cl)c(Cl)c1 [B148]
15,1.25e-07,CC(NC(=O)Cc1ccc(Cl)c(Cl)c1)c1cccc(-c2cn3c(n2)CCC3)c1 (centres unmarked) [B192]
16,6.18e-07,COc1ccc(C(=O)N(Cc2cccc(-c3cn4c(n3)CCC4)c2)CC2CC2)cc1OC [B59]
17,5e-06,O=C(NCc1cccc(-c2cn3c(n2)CCC3)c1)c1ccc(F)cc1 [B3]
18,3.36e-06,O=C(CCc1cccnc1)NCc1cccc(-c2cn3c(n2)CCC3)c1 [B30]
19,2.3e-08,COc1cc(C(=O)NCc2cc(-c3cn4c(n3)CCC4)ccc2N2CCOCC2C)ccc1C (centres unmarked) [B203]
20,3.3e-08,CC(=O)N1CCCCC1C(=O)NCc1cccc(-c2cn3c(n2)CCC3)c1 (centres unmarked) [B188]
21,2e-08,O=C(Cc1ccc(Cl)c(Cl)c1)NCc1cc(-c2cn3c(n2)CCC3)ccc1-c1ccccc1 [B111]

row,Kd [M],SMILES
1,5.02e-07,O=C(Cc1ccc(Cl)c(F)c1)NCc1cccc(-c2cn3c(n2)CCC3)c1 [B82]
2,4.1e-07,CC(C(=O)N(Cc1cccc(-c2cn3c(n2)CCC3)c1)C(C)C)c1cc(Cl)cc(Cl)c1 (centres unmarked) [B75]
3,1e-05,CCC(=O)N1CCCC(C(=O)NCc2cccc(-c3cn4c(n3)CCC4)c2)C1 (centres unmarked) [B181]
4,4.46e-06,COc1ccc(C(=O)N(CCc2ccccc2)Cc2cccc(-c3cn4c(n3)CCC4)c2)cc1OC [B57]
5,2.18e-07,N#Cc1cccc(C(=O)NCc2cccc(-c3cn4c(n3)CCC4)c2)c1 [B172]
6,2.75e-05,O=C(Cc1ccc(Cl)c(Cl)c1)NCc1cc(-c2cn3c(n2)CCC3)ccc1N1CCCCC1 [B101]
7,2.58e-07,COc1cccc(C(=O)N(Cc2cccc(-c3cn4c(n3)CCC4)c2)CC2CCCCC2)c1 [B36]
8,5.2e-08,"O=C(Cc1ccc(Cl)c(Cl)c1)N(Cc1cc(-c2cn3c(n2)CCC3)ccc1N1CCOCC1)CC1CC1 [B175, N-(Cyclopropylmethyl)-2-(3,4-dichlorophenyl)-N-(5-(6,7-dihydro-5H-pyrrolo[1,2-a]imidazol-2-yl)-2-morpholinobenzyl)acetamide]"
9,7.04e-07,"Cc1ccc(C(=O)NCc2cccc(-c3cn4c(n3)CCC4)c2)cc1C [B21, N-(3-(6,7-Dihydro-5H-pyrrolo[1,2-a]imidazol-2-yl)benzyl)-3,4-dimethylbenzamide]"
10,5.53e-07,COc1ccc(C(=O)N(Cc2ccc(C)cc2)Cc2cccc(-c3cn4c(n3)CCC4)c2)cc1OC [B66]
11,4e-08,CC(NC(=O)Cc1ccc(F)c(Cl)c1)c1cc(-c2cn3c(n2)CCC3)ccc1N1CCOCC1 (centres unmarked) [B214]
12,1e-05,Cc1ccc(-c2ccc(-c3cn4c(n3)CCC4)cc2CNC(=O)Cc2ccc(Cl)c(Cl)c2)cc1 [B163]
13,2.04e-07,"COc1cc(C(=O)NC(c2cccc(-c3cn4c(n3)CCC4)c2)C(C)C)ccc1C (centres unmarked) [B220, N-(1-(3-(6,7-Dihydro-5H-pyrrolo[1,2-a]imidazol-2-yl)phenyl)-2-methylpropyl)-3-methoxy-4-methylbenzamide]"
14,9.47e-07,O=C(NCc1cccc(-c2cn3c(n2)CCC3)c1)C1CCCN(C(=O)C2CC2)C1 (centres unmarked) [B187]
15,2.05e-07,COc1cccc(NC(=O)NCc2cccc(-c3cn4c(n3)CCC4)c2)c1 [B24]
16,3.91e-07,Cc1cc(NC(=O)NCc2cccc(-c3cn4c(n3)CCC4)c2)ccc1Cl [B45]
17,1.06e-06,O=C(NCc1cccc(-c2cn3c(n2)CCC3)c1)C(c1ccccc1)c1ccccc1 [B67]
18,1.79e-07,NC(C(=O)NCc1cc(-c2cn3c(n2)CCC3)ccc1N1CCOCC1)c1ccccc1 (centres unmarked) [B218]
19,8.63e-07,CCC(C1CC1)N(Cc1cccc(-c2cn3c(n2)CCC3)c1)C(=O)c1cccc(OC)c1 (centres unmarked) [B87]
20,3.8e-07,O=C(NCc1cccc(-c2cn3c(n2)CCC3)c1)c1cccc(Cl)c1Cl [B167]
21,5.1e-07,COc1cccc(C(=O)N(Cc2cc(-c3cn4c(n3)CCC4)ccc2N2CCCC2)CC2CC2)c1 [B102]

row,Kd [M],SMILES
1,2.76e-07,O=C(Cc1ccc(Cl)c(Cl)c1)NCc1cc(-c2cn3c(n2)CCC3)ccc1OCc1ccccc1 [B116]
2,4.7e-08,CC(NC(=O)Cc1ccc(F)c(Cl)c1)c1cc(-c2cn3c(n2)CCC3)ccc1OC1CCC1 (centres unmarked) [B212]
3,6.3e-07,O=C(NCc1cccc(-c2cn3c(n2)CCC3)c1)C1CCCNC1 (centres unmarked) [B43]
4,3.83e-07,NC(C(=O)NCc1cc(-c2cn3c(n2)CCC3)ccc1OC1CCC1)c1ccccc1 (centres unmarked) [B219]
5,2.85e-06,COc1cccc(C(=O)N(Cc2cccc(-c3cn4c(n3)CCC4)c2)CC(C)C)c1 [B85]
6,2.43e-07,COc1cccc(C(=O)N(Cc2ccccc2)Cc2cccc(-c3cn4c(n3)CCC4)c2)c1 [B35]
7,9.61e-07,O=C(NCc1cc(-c2cn3c(n2)CCC3)ccc1N1CCOCC1)c1cc(Cl)ccn1 [B195]
8,4.48e-07,Cc1cc(C(=O)N(C)Cc2cccc(-c3cn4c(n3)CCC4)c2)ccc1Cl [B38]
9,1.86e-06,O=C(NCc1cccc(-c2cn3c(n2)CCC3)c1)c1ccc(Cl)nc1 [B17]
10,2.3e-06,O=C(CCc1ccccc1)NCc1cccc(-c2cn3c(n2)CCC3)c1 [B13]
11,2.17e-06,O=C(Cc1ccc(F)c(Cl)c1)NCc1cc(-c2cn3c(n2)CCC3)ccc1OC1CCC1 [B197]
12,1.59e-07,COc1cc(C(=O)N(Cc2cc(-c3cn4c(n3)CCC4)ccc2N2CCOCC2)CC2CCCCC2)ccc1C [B198]
13,1.37e-06,"CC(=O)N1CCC(C(=O)NCc2cccc(-c3cn4c(n3)CCC4)c2)CC1 [B25, 1-Acetyl-N-(3-(6,7-dihydro-5H-pyrrolo[1,2-a]imidazol-2-yl)benzyl)piperidine-4-carboxamide]"
14,4.24e-05,COc1cccc(C(=O)N(Cc2cc(-c3cn4c(n3)CCC4)ccc2F)CC2CC2)c1 [B90]
15,2.2e-08,O=C(Cc1ccncc1)NCc1cccc(-c2cn3c(n2)CCC3)c1 [B123]
16,8.7e-08,O=C(Cc1ccc(Cl)nc1)NCc1cccc(-c2cn3c(n2)CCC3)c1 [B135]
17,4.8e-07,O=C(Nc1cc(Cl)cc(Cl)c1)N(Cc1cccc(-c2cn3c(n2)CCC3)c1)CC1CC1 [B50]
18,1.09e-06,CS(=O)(=O)N1CCCCC1C(=O)NCc1cccc(-c2cn3c(n2)CCC3)c1 (centres unmarked) [B182]
19,1.81e-06,Cc1cc(Cl)cc(C(=O)NCc2cccc(-c3cn4c(n3)CCC4)c2)c1 [B160]
20,2.04e-06,COc1cc(C(=O)NCc2cc(-c3cn4c(n3)CCC4)ccc2N2CCOCC2)ccc1C [B194]
21,3.01e-07,CC(C)N(Cc1cccc(-c2cn3c(n2)CCC3)c1)C(=O)Nc1cc(Cl)cc(Cl)c1 [B72]

row,Kd [M],SMILES
1,1.05e-07,O=C(Cc1ccc(F)c(Cl)c1)NCc1cccc(-c2cn3c(n2)CCC3)c1 [B155]
2,5.26e-07,O=C(NCc1cccc(-c2cn3c(n2)CCC3)c1)C1CCc2ccccc2C1 (centres unmarked) [B42]
3,6.12e-07,CN(Cc1cccc(-c2cn3c(n2)CCC3)c1)C(=O)Cc1cc(Cl)cc(Cl)c1 [B71]
4,4.15e-07,COc1ccc(CN(Cc2cccc(-c3cn4c(n3)CCC4)c2)C(=O)c2ccc(OC)c(OC)c2)cc1 [B65]
5,1.85e-06,COc1cccc(C(=O)N(CC2CC2)C(C)c2cccc(-c3cn4c(n3)CCC4)c2)c1 (centres unmarked) [B191]
6,5.99e-07,CC(C)(NC(=O)Cc1ccc(F)c(Cl)c1)c1cccc(-c2cn3c(n2)CCC3)c1 [B216]
7,3.07e-07,COc1cccc(C(=O)NCc2cc(-c3cn4c(n3)CCC4)ccc2N2CC(C)OC(C)C2)c1 (centres unmarked) [B180]
8,1e-09,O=C(Cc1ccc2c(c1)OCO2)NCc1cccc(-c2cn3c(n2)CCC3)c1 [B154]
9,3.35e-07,COc1cccc(C(=O)N(Cc2cc(-c3cn4c(n3)CCC4)ccc2C)CC2CC2)c1 [B23]
10,6.1e-08,O=C(Cc1ccc(F)c(Cl)c1)NCc1cc(-c2cn3c(n2)CCC3)cnc1OC1CCC1 [B224]
11,7.51e-07,COc1ccc(C(=O)N(Cc2cccc(-c3cn4c(n3)CCC4)c2)Cc2ccc(F)c(F)c2)cc1OC [B63]
12,3.09e-07,O=C(Cc1cccc(Br)c1)NCc1cccc(-c2cn3c(n2)CCC3)c1 [B136]
13,1.2e-07,CN1CCN(c2ccc(-c3cn4c(n3)CCC4)cc2CNC(=O)Cc2ccc(Cl)c(Cl)c2)CC1 [B142]
14,1e-05,O=C(Cc1ccc(Cl)c(Cl)c1)NCc1cc(-c2cn3c(n2)CCC3)ccc1OC1CCCC1 [B109]
15,1e-08,CC(=O)N1CCCC(C(=O)NC(C)c2cccc(-c3cn4c(n3)CCC4)c2)C1 (centres unmarked) [B209]
16,2.3e-08,COc1cccc(C(=O)NC(C)c2cccc(-c3cn4c(n3)CCC4)c2)c1 (centres unmarked) [B205]
17,2.08e-07,O=C(Cc1cc(Cl)cc(Cl)c1)NCc1cccc(-c2cn3c(n2)CCC3)c1 [B18]
18,9.9e-08,CC(NC(=O)Cc1ccc(F)c(Cl)c1)c1cc(-c2cn3c(n2)CCC3)ccc1F (centres unmarked) [B222]
19,1.3e-08,COc1cccc(C(=O)NCc2cc(-c3cn4c(n3)CCC4)ccc2OCc2ccccc2)c1 [B115]
20,1.14e-06,COc1ccc(C(=O)N(Cc2cccc(-c3cn4c(n3)CCC4)c2)C2CC2)cc1OC [B53]
